In PMC11964917 (Nature Microbiology, 2025):

Columns and labels:
influenza A/H7N9 virus = assay type: cell-based
influenza A/H5N1 virus = assay type: cell-based
recombinant NA A/H7N9 = assay type: biochemical, influenza A virus

| Structure (SMILES) | EC50 (influenza A/H7N9 virus) [nM] | EC50 (influenza A/H5N1 virus) [nM] | IC50 (recombinant NA A/H7N9) [nM] |
| --- | --- | --- | --- |
| O=C1c2c(O)c(=O)ccn2N([C@@H]2c3ccccc3SCc3c2ccc(F)c3F)[C@@H]2COCCN12 [BXA, baloxavir acid] | < 0.03 | < 0.03 |  |
| CC(=O)N[C@H]1[C@H]([C@H](O)[C@H](O)CO)OC(C(=O)O)=C[C@@H]1N=C(N)N [ZAN, zanamivir] |  |  | > 100 |
